Measured values reported in article PMC4977194 (Bioorganic & medicinal chemistry letters, 2016).

What was measured:
[1] = biological target: VMAT2 (Rattus norvegicus, UniProt Q01827); experiment: Vesicular [3H]DA uptake assay; assay type: biochemical; conditions: for further improvement in inhibitory potency at VMAT2 on hydrolysis of the 4-acetoxy groups: relative to acetoxy precursors 4 and 5
[2] = biological target: SERT (Rattus norvegicus, UniProt P31652); experiment: Synaptosomal [3H]5-HT uptake assay; assay type: biochemical
SERT, sequence (P31652 whole entry): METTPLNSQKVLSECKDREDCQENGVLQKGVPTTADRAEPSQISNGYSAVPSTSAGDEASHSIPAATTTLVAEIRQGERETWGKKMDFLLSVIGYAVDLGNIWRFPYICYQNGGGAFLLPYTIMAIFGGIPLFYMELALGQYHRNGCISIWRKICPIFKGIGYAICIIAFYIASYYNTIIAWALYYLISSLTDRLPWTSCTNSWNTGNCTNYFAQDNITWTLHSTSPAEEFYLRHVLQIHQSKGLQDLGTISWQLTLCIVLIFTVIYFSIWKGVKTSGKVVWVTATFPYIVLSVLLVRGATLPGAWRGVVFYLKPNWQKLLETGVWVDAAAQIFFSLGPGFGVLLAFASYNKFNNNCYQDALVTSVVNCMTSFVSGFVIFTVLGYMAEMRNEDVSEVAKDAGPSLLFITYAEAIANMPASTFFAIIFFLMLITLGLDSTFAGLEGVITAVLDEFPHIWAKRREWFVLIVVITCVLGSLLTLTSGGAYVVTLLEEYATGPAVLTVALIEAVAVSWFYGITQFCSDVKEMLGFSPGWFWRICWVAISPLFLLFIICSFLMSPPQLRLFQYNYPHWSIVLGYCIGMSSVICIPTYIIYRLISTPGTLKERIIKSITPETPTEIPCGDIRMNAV

VMAT2, sequence (Q01827 whole entry): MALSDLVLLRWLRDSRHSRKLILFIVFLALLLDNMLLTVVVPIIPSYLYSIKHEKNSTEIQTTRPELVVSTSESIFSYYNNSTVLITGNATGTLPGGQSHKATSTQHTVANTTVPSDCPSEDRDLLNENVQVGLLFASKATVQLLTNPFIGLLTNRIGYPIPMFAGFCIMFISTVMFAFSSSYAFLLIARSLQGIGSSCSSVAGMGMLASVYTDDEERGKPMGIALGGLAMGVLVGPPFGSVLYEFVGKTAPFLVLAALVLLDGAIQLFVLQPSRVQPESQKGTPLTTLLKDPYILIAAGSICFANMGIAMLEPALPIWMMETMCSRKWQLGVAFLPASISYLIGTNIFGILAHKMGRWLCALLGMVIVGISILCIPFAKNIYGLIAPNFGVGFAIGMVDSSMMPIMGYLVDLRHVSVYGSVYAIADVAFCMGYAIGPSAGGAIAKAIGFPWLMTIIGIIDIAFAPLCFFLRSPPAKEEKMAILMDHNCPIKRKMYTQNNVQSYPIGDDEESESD

With CC(=O)Oc1ccc(CC[C@H]2CCC[C@@H](CCc3ccc(OC(C)=O)cc3)N2C)cc1.Cl [Compound 5] the “improved inhibitory potency at VMAT2 relative to 4” value ([1]; N-methylation of 4) was 3 fold.

In the case of CN1[C@@H](CCc2ccc(O)cc2)CCC[C@H]1CCc1ccc(O)cc1.Cl [Compound 6], the “further improvement in inhibitory potency at VMAT2 on hydrolysis of the 4-acetoxy groups” value [1] is reported as “about 2 fold”.

With Cl.Oc1ccc(CC[C@H]2CCC[C@@H](CCc3ccc(O)cc3)N2)cc1 [Compound 7] the “further improvement in inhibitory potency at VMAT2 on hydrolysis of the 4-acetoxy groups” value [1] was “about 2 fold”.

Cl.FCCOc1ccc(CC[C@H]2CCC[C@@H](CCc3ccc(OCCF)cc3)N2)cc1 [Compound 13] was tested, and the “greater affinity for SERT than lobelane” value [2] was 6 fold.

For Cl.OC[C@H](O)CN1[C@@H](CCc2ccc(O)cc2)CCC[C@H]1CCc1ccc(OCCF)cc1 [Compound 16], the “greater affinity for SERT than GZ-793A” value [2] was 7 fold.

In the case of Cl.OC[C@H](O)CN1[C@@H](CCc2ccc(OCCF)cc2)CCC[C@H]1CCc1ccc(OCCF)cc1 [Compound 17], the “decrease in affinity for SERT when compared to GZ-793A” value [2] is reported as 4 fold.
